# Source: paper PMC10610188, “Structure–Activity Relationship Studies of Chalcones and Diarylpentanoids with Antitumor Activity: Potency and Selectivity Optimization” (Pharmaceuticals, 2023)
# Tests used:
# HFF-1 cells = experiment: SRB growth inhibition assay in normal fibroblasts HFF-1; type: cell-based, human; conditions: for SI2: Selective index 2: GI50 of HFF-1/GI50 of HCT116 p53^+/+; for GI50: Homo sapiens, HFF-1, SRB assay, 48 h of treatment
# Method: (§1) To study the in vitro antitumor potential of chalcone CM-M345 (1) and diarylpentanoid BP-C4 (2) analogues, the sulforhodamine B (SRB) assay was used to evaluate the antiproliferative activity in human colorectal HCT116 cancer cells. To assess their cytotoxicity toward normal cells, the antiproliferative effect of these compounds was also tested in human fibroblasts HFF-1 cells. In order to confirm if inhibition of proliferation was associated with p53 activation in HCT116 p53^+/+ cells, all compounds were also tested in HCT116 cells in which p53 was knocked out (HCT116 p53^−/−) and the selective index was calculated and compared to the compounds CM-M345 (1) and BP-C4 (2), for which p53-dependent antiproliferative activity was previously reported by our research group (Table 1).
# (§2) The colorectal adenocarcinoma HCT116 cells (HCT116 p53^+/+) and its p53-null isogenic derivative (HCT116 p53^−/−) were given by Prof. Vogelstein (The Johns Hopkins Kimmel Cancer Center, Baltimore, USA); the normal human fibroblasts HFF-1 cell lines were from ATCC (Rockville, MD, USA). Human cells were cultured in RPMI-1640 with UltraGlutamine (Lonza, VWR, Portugal) with 10% FBS (Gibco, Alfagene, Portugal) at 37 °C with 5% CO2. The SH-SY5Y cells were cultured in DMEM/F-12 (Lonza) and 10% FBS and 2mM L-glutamine (Gibco). The cells were incubated at 37 °C in a humidified atmosphere of 5% CO2. Mycoplasma was routinely checked using the MycoAlert™ PLUS kit (Lonza). […]
# HCT116 p53^+/+ cells = experiment: SRB growth inhibition assay in HCT116 p53+/+ cells; type: cell-based, human; conditions: SRB assay, 48 h of treatment
# Method: as §1, §2
# HCT116 p53^−/− cells = experiment: SRB growth inhibition assay in HCT116 p53-/- cells; type: cell-based, human; conditions: for SI1: Selective index 1: GI50 of HCT116 p53^−/−/GI50 of HCT116 p53^+/+; for GI50: Homo sapiens, HCT-116, SRB assay, 48 h of treatment
# Method: as §1, §2
SMILES,SI2: Selective index 2 (HFF-1 cells),GI50 (HFF-1 cells),melting point,"GI50 (HCT116 p53^+/+ cells; Homo sapiens, HCT-116, 48 h)",SI1: Selective index 1 (HCT116 p53^−/− cells),GI50 (HCT116 p53^−/− cells),"GI50 (HCT116 p53^+/+ cells; Homo sapiens, HCT-116)",GI50 (HCT116 p53^+/+ cells)
COc1cc(/C=C2\Cc3ccccc3C2=O)cc(OC)c1OC [Compound 3],1.76,8.1 ± 0.1 µM,160 to 163 °C,4.6 ± 0.3 µM,0.70,3.2 ± 0.47 µM,,
"COc1cc(/C=C2\Cc3c(ccc(OC)c3OC)C2=O)cc(OC)c1OC [Compound 4, (E)-2-(3,4,5-trimethoxybenzylidene)-4,5-dimethoxy-2,3-dihydro-1H-inden-1-one]",1.34,5.1 ± 0.9 µM,165 to 168 °C,,0.82,3.1 ± 0.22 µM,3.8 ± 0.32 µM,
COc1cc2c(cc1OC)C(=O)/C(=C/c1cc(OC)c(OC)c(OC)c1)C2 [Compound 5],0.52,3.2 ± 0.07 µM,156 to 159 °C,6.1 ± 0.12 µM,0.67,4.1 ± 0.36 µM,,
O=C1/C(=C/c2ccc(Cl)cc2)Cc2ccccc21 [Compound 6],,> 30 µM,179 to 181 °C,21.5 to 30 µM,,> 30 µM,,21.5 ± 1.19 µM
"COc1ccc2c(c1OC)C/C(=C\c1ccc(Cl)cc1)C2=O [Compound 7, (E)-2-(4-chlorobenzylidene)-4,5-dimethoxy-2,3-dihydro-1H-inden-1-one]",0.64,4.7 ± 0.5 µM,206 to 209 °C,7.4 ± 0.56 µM,0.61,4.5 ± 0.13 µM,,
COc1cc2c(cc1OC)C(=O)/C(=C/c1ccc(Cl)cc1)C2 [Compound 8],0.68,5.1 ± 0.9 µM,,,0.60,4.5 ± 0.28 µM,7.5 ± 0.45 µM,
COc1cc(/C=C2\CCc3ccccc3C2=O)cc(OC)c1OC [Compound 9],0.93,5.5 ± 0.03 µM,,5.9 ± 1.28 µM,1.32,7.8 ± 0.9 µM,,
"COc1cc2c(cc1OC)C(=O)/C(=C/c1cc(OC)c(OC)c(OC)c1)CC2 [Compound 10, (E)-2-(3,4,5-trimethoxybenzylidene)-6,7-dimethoxy-3,4-dihydronaphthalen-1(2H)-one]",1.35,5.4 ± 0.1 µM,145 to 147 °C,6.7 to 8.6 µM,0.73,2.9 ± 0.11 µM,,4 ± 0.23 µM
COc1cc(/C=C2\COc3ccccc3C2=O)cc(OC)c1OC [Compound 11],1.32,8.3 ± 1.4 µM,109 to 111 °C,6.7 to 8.6 µM,0.97,6.1 ± 1 µM,,6.3 ± 2.18 µM
"COc1cc(/C=C2\CSc3ccccc3C2=O)cc(OC)c1OC [Compound 12, (Z)-3-(3,4,5-trimethoxybenzylidene)thiochroman-4-one]",,6.7 ± 0.4 µM,,5.7 ± 0.51 µM,,3.9 ± 0.26 µM,,
O=C1/C(=C/c2ccc(Cl)cc2)CCc2ccccc21 [Compound 13],,> 30 µM,,21.5 to 30 µM,,> 30 µM,,> 30 µM
"COc1cc2c(cc1OC)C(=O)/C(=C/c1ccc(Cl)cc1)CC2 [Compound 14, (E)-2-(4-chlorobenzylidene)-6,7-dimethoxy-3,4-dihydronaphthalen-1(2H)-one]",,7.7 ± 0.2 µM,,6.7 ± 0.21 µM,,4.3 ± 0.15 µM,,
O=C1/C(=C/c2ccc(Cl)cc2)COc2ccccc21 [Compound 15],0.49,4.25 ± 0.32 µM,,8.6 ± 0.5 µM,0.62,5.29 ± 0.19 µM,,
O=C1/C(=C/c2ccc(Cl)cc2)CC/C1=C\c1ccc(Cl)cc1 [Compound 18],,> 30 µM,,> 30 µM,,> 30 µM,,
O=C1/C(=C/c2ccc(Cl)cc2)CCC/C1=C\c1ccc(Cl)cc1 [Compound 19],4.55,14.1 ± 0.12 µM,,3.1 ± 0.1 µM,0.95,2.95 ± 0.15 µM,,
O=C1/C(=C/c2ccc(Cl)cc2)CSC/C1=C\c1ccc(Cl)cc1 [Compound 20],2.01,2.27 ± 0.09 µM,126 to 128 °C,1.13 ± 0.17 µM,0.93,1.05 ± 0.05 µM,,
COc1cc(/C=C/C(=O)/C=C/c2cc(OC)c(OC)c(OC)c2)cc(OC)c1OC [Compound 21],,> 30 µM,,> 30 µM,,> 30 µM,,
COc1cc(/C=C2\CC/C(=C\c3cc(OC)c(OC)c(OC)c3)C2=O)cc(OC)c1OC [Compound 22],1.50,0.135 ± 0.004 µM,,0.09 ± 0.03 µM,0.78,0.07 ± 0.01 µM,,
COc1cc(/C=C2\CCC/C(=C\c3cc(OC)c(OC)c(OC)c3)C2=O)cc(OC)c1OC [Compound 23],0.72,1.65 ± 0.04 µM,,2.3 ± 0.03 µM,0.24,0.56 ± 0.07 µM,,
COc1cc(/C=C2\CSC/C(=C\c3cc(OC)c(OC)c(OC)c3)C2=O)cc(OC)c1OC [Compound 24],0.74,0.23 ± 0.02 µM,219 to 222 °C,0.31 ± 0.03 µM,1.84,0.57 ± 0.009 µM,,
"CCCc1c(OC)ccc(C(=O)/C=C/c2cc(OC)c(OC)c(OC)c2)c1OCC=C(C)C [Compound 26, (E)-1-(4-methoxy-2-((3-methylbut-2-en-1-yl)oxy)-3-propylphenyl)-3-(3,4,5-trimethoxyphenyl)prop-2-en-1-one]",1.22,7.3 ± 2 µM,100 to 103 °C,6 ± 0.93 µM,0.77,4.6 ± 1.7 µM,,
"CCCc1c(OC)ccc(C(=O)CCc2cc(OC)c(OC)c(OC)c2)c1O [Compound 29, 1-(2-hydroxy-4-methoxy-3-propylphenyl)-3-(3,4,5-trimethoxyphenyl)propan-1-one]",1.18,22.1 ± 7.2 µM,,18.7 ± 2.19 µM,0.60,11.2 ± 5.3 µM,,
"CCCc1c(OC)ccc(C(=O)/C=C/c2ccc(N(C)C)cc2)c1O [Compound 35, (E)-3-(4-(dimethylamino)phenyl)-1-(2-hydroxy-4-methoxy-3-propylphenyl)prop-2-en-1-one]",1.31,14 ± 3.6 µM,126 to 128 °C,,1.52,16.3 ± 2.6 µM,,
"CC(C)=CCOc1ccccc1/C=C1\COC/C(=C\c2ccccc2OCC=C(C)C)C1=O [Compound 38, 3,5-bis((E)-2-((3-methylbut-2-en-1-yl)oxy)benzylidene)tetrahydro-4H-pyran-4-one]",,> 30 µM,,> 30 µM,,> 30 µM,,
"COc1cc([C@@H]2c3cc4c(cc3[C@@H](O[C@@H]3O[C@@H]5CO[C@@H](C)O[C@H]5[C@H](O)[C@H]3O)[C@H]3COC(=O)[C@H]23)OCO4)cc(OC)c1O [Etoposide, reference compound]",,0.35 µM,,0.71 µM,,,,
